Data published in patent US20250222051A1, “MU[…] ADJUVANT TREATMENT OF TUMOR, AND PREPARATION METHOD AND APPLICATION THEREOF” (Changde Jizhi Biological Technology Co., Ltd, priority 2024, published 2025).

What was measured:
mouse H22 hepatoma cells = settings: oxaliplatin 15 mg/kg tail vein once, products 0.45 g/kg intragastric
Method: The anti-tumor effect of the product of the disclosure on a Hepatoma-22 (H22) mouse model of live cancer is studied.
Positive control drug: oxaliplatin.
Animals and preparation of tumors are as follows. BALB/c male mice are adopted, weighing 18-22 g. The mice are fed in specific-pathogen free (SPF) grade animal house, with temperature of 20-25° C., relative humidity of 40%-70%, 6 mice per cage, illumination time of 12 h, regular and quantitative addition of feed, free drinking water, and daily replacement of padding.
Transplanted tumor cells: 10^6 mouse H22 hepatoma cells are injected into abdominal cavity for passage, and the hepatoma cells are collected after 7-10 days for subcutaneous inoculation.
Experimental methods of tumor passage preservation for in vivo tumor inhibition effect evaluation: H22 hepatoma mice are inoculated intraperitoneally and the ascites is taken for passage and preservation.
Tumor inoculation: H22 hepatocellular carcinoma bearing mice on the 10th day of ascites passage are taken, the mice are killed by cervical vertebra removal, the abdominal skin is disinfected, milky white ascites is absorbed with a sterile syringe, and the concentration of tumor cells is adjusted to 1×10^6 cells per milliliter (mL) with normal saline for injection. The right armpit skin of BALB/c mice is disinfected with alcohol cotton balls, 0.2 mL of the tumor cell suspension is inoculated subcutaneously, and the mice are raised routinely.
After 24 hours of the last administration, the mice are sacrificed by cervical dislocation, and the tumor tissues are stripped and weighed. The curative effect is evaluated by tumor weight inhibition rate (%), and analysis of variance (ANOVA) test is used for statistical comparison between groups.

[1] = test system: Human lung cancer cells (A549); settings: A549 transplanted tumor, oxaliplatin 15 mg/kg tail vein once, products 0.45 g/kg intragastric
From the text: (§1) Experimental animals: BLAB/c female nude mice, 6-7 weeks old, weighing 18-20 g.
(§2) Subcutaneous tumor cell inoculation in mice: Human lung cancer cells (A549), human ovarian cancer cells (Skov-3) and human cervical cancer epithelial cells (Hela) in logarithmic growth phase are taken and made into cell suspension (1×10^7 cells/mL) with phosphate buffered saline (PBS), each mouse is inoculated with 2×10^6 cells, the inoculation volume is 200 microliters (μL), and then inoculated subcutaneously in the armpit of BLAB/c nude mice. The selected tumor tissues are put into a glass homogenizer, ground with sterile physiological saline, filtered into a single cell suspension through a sieve, and the number of living cells is counted by trypan blue staining. Each nude mouse is inoculated with 200 μL cell suspension (including 1×10^6 cells) under its armpit.
(§3) Experimental grouping and methods: nude mice with the same tumor size are selected, and the nude mice are weighed and randomly divided into groups. […] The drug concentration and specific grouping are as follows. The model control group is intragastrically administered with 200 μL normal saline once a day, the mice are administered once on the second day after tumor inoculation. […] After 24 hours of the last administration, the tumor mass is taken out, the tumor weight is measured and the tumor inhibition rate is calculated.

[2] = test system: human ovarian cancer cells (Skov-3); settings: Skov-3 transplanted tumor, oxaliplatin 15 mg/kg tail vein once, products 0.45 g/kg intragastric
From the text: as §1, §2, §3

[3] = test system: human cervical cancer epithelial cells (Hela); settings: Hela transplanted tumor, oxaliplatin 15 mg/kg tail vein once, products 0.45 g/kg intragastric
From the text: as §1, §2, §3

**Q.** With O=C1[O][Pt]2([NH][C@@H]3CCCC[C@H]3[NH]2)[O]C1=O [Oxaliplatin, oxaliplatin] as the compound, how does the “Tumor weight” value (mouse H22 hepatoma cells; H22 subcutaneous tumor, 24 hours after last administration) read?
**A.** Its value is 1.14 ± 0.29 g.

**Q.** What about the “Inhibition rate (%)” value (mouse H22 hepatoma cells; H22 tumor weight inhibition rate) of the same compound?
**A.** The value was 50.22%.

**Q.** And the “Weight Start” value (mouse H22 hepatoma cells; body weight of H22 tumor-bearing mice at start)?
**A.** Its value is 20.09 ± 1.08.

**Q.** And the “Tumor weight” value ([1]; X ± SD)?
**A.** Its value is 0.98 ± 0.32 g.

**Q.** And the “Inhibition rate (%)” value [1]?
**A.** The value was 58.25%.

**Q.** And the “Tumor weight” value ([2]; X ± SD)?
**A.** Its value is 1.78 ± 0.33 g.

**Q.** What about the “Inhibition rate (%)” value [2] of the same compound?
**A.** Its value is 45.25%.

**Q.** What about the “Tumor weight” value ([3]; X ± SD) of the same compound?
**A.** The value was 1.78 ± 0.33 g.

**Q.** And the “Inhibition rate (%)” value [3]?
**A.** Its value is 45.25%.
